For data set [1], the system named is Mus musculus. Kind of data set: Anti-inflammatory activity against MOG35-55-induced experimental autoimmune encephalomyelitis C57BL/6 mouse model assessed as fold change in NFKB gene expression in brain at 300 mg/kg/day, ig for 14 days starting from 12th day of immunization by RT-qPCR analysis relative to control. It is filed as functional. As to conditions: time 14 day. A general note: Quantitative PCR measures a nucleic acid by following its amplification.

The test system of data set [2] is Mus musculus. Kind of data set: Anti-inflammatory activity against MOG35-55-induced experimental autoimmune encephalomyelitis C57BL/6 mouse model assessed as fold change in STAT3 gene expression in brain at 300 mg/kg/day, ig for 14 days starting from 12th day of immunization by RT-qPCR analysis relative to control. It is filed as functional. As to conditions: time 14 day.

The subject of data set [3] is Mus musculus. Kind of data set: Anti-inflammatory activity against MOG35-55-induced experimental autoimmune encephalomyelitis C57BL/6 mouse model assessed as fold change in APP gene expression in brain at 300 mg/kg/day, ig for 14 days starting from 12th day of immunization by RT-qPCR analysis relative to control. It is filed as functional. As to conditions: time 14 day.

A short description of data set [4]: Stability of the compound in THF/phosphate buffer at pH 2.5 incubated for 2 hrs under stirring conditions by 1H-NMR analysis. As to conditions: pH 2.5, 2 h. It is filed as physicochemical.
Data set [5] has as its system Mus musculus. The data set can be described thus: Anti-inflammatory activity against MOG35-55-induced experimental autoimmune encephalomyelitis C57BL/6 mouse model assessed as proportion of brain infiltrating cells expressing CD45+/CD11b/c high surface markers at 600 mg/kg/day, ig for 14 days starting from 12th day of immunization by flow cytometry (reference value: 87.7%). The data set is classed as functional. The following applies: time 14 day. For orientation: A flow cytometer gives signals particle by particle.

The test system of data set [6] is Mus musculus. The data set can be described thus: Anti-inflammatory activity against MOG35-55-induced experimental autoimmune encephalomyelitis C57BL/6 mouse model assessed as reduction in APP protein expression in brain at 300 to 600 mg/kg/day, ig for 14 days starting from 12th day of immunization by western blot analysis relative to control. It is filed as functional. As to conditions: dose 300-600 mg/kg/day, time 14 day. (In western blotting, separated proteins are transferred to a membrane and probed.)

Data set [7] has as its system Mus musculus. The data set can be described thus: Anti-inflammatory activity against MOG35-55-induced experimental autoimmune encephalomyelitis C57BL/6 mouse model assessed as methylation of CpG sites of […] gene promoter in brain at 600 mg/kg, ig for 14 days starting from 12th day of immunization by PCR analysis (reference value: 13.1 +/-8%). The following applies: time 14 day. It is filed as functional.

The test system of data set [8] is Mus musculus. The data set can be described thus: Anti-inflammatory activity against MOG35-55-induced experimental autoimmune encephalomyelitis C57BL/6 mouse model assessed as fold change in CXCL10 gene expression in brain at 300 mg/kg/day, ig for 14 days starting from 12th day of immunization by RT-qPCR analysis relative to control. It is filed as functional. The following applies: time 14 day.

Data set [9] is described as follows: Stability of the compound in THF/phosphate buffer at pH 7.4 incubated for 2 hrs under stirring conditions by 1H-NMR analysis. The data set is classed as physicochemical. The following applies: pH 7.4, 2 h.
The subject of data set [10] is Mus musculus. The data set can be described thus: Anti-inflammatory activity against MOG35-55-induced experimental autoimmune encephalomyelitis C57BL/6 mouse model assessed as methylation of CpG sites of IL10RA gene promoter in brain at 600 mg/kg, ig for 14 days starting from 12th day of immunization by PCR analysis (reference value: 34.9 +/-4%). The data set is classed as functional. The following applies: time 14 day.

Data set [11] is described as follows: Toxicity in C57BL/6 mouse assessed as serum LDH activity at 600 mg/kg/day, ig for 14 days by colorimetric analysis (reference value: 5.96 +/-1.08 U/ml). It is filed as organism-based. The following applies: in vivo, po, 336 h, time 14 day.
Data set [12] relates to Mus musculus. The data set can be described thus: Anti-inflammatory activity against MOG35-55-induced experimental autoimmune encephalomyelitis C57BL/6 mouse model assessed as fold change in CCL5 gene expression in brain at 300 mg/kg/day, ig for 14 days starting from 12th day of immunization by RT-qPCR analysis relative to control. As to conditions: time 14 day. The data set is classed as functional.

The test system of data set [13] is Mus musculus. The data set can be described thus: Anti-inflammatory activity against MOG35-55-induced experimental autoimmune encephalomyelitis C57BL/6 mouse model assessed as fold change in IL6 gene expression in brain at 600 mg/kg/day, ig for 14 days starting from 12th day of immunization by RT-qPCR analysis relative to control. As to conditions: time 14 day. It is filed as functional.

Data set [14] has as its system Mus musculus. Kind of data set: Anti-inflammatory activity against MOG35-55-induced experimental autoimmune encephalomyelitis C57BL/6 mouse model assessed as fold change in CD4 gene expression in brain at 300 mg/kg/day, ig for 14 days starting from 12th day of immunization by RT-qPCR analysis relative to control. The data set is classed as functional. As to conditions: time 14 day.

Data set [15] deals with Mus musculus. The data set can be described thus: Anti-inflammatory activity against MOG35-55-induced experimental autoimmune encephalomyelitis C57BL/6 mouse model assessed as fold change in APP gene expression in brain at 0.15 mg/kg/day, ig for 14 days starting from 12th day of immunization by RT-qPCR analysis relative to control. As to conditions: time 14 day. The data set is classed as functional.

Data set [16] concerns Mus musculus. The data set can be described thus: Anti-inflammatory activity against MOG35-55-induced experimental autoimmune encephalomyelitis C57BL/6 mouse model assessed as methylation of CpG sites of SOCS5 gene promoter in brain at […], ig for 14 days starting from 12th day of immunization by PCR analysis (reference value: 10.6 +/-4%). The data set is classed as functional. The following applies: time 14 day.

Data set [17] relates to Mus musculus. The data set can be described thus: Anti-inflammatory activity against MOG35-55-induced experimental autoimmune encephalomyelitis C57BL/6 mouse model assessed as fold change in NFKB gene expression in brain at 0.3 mg/kg/day, ig for 14 days starting from 12th day of immunization by RT-qPCR analysis relative to control. The data set is classed as functional. The following applies: time 14 day.

For data set [18], the system named is Mus musculus. The data set can be described thus: Anti-inflammatory activity against MOG35-55-induced experimental autoimmune encephalomyelitis C57BL/6 mouse model assessed as fold change in STAT3 gene expression in brain at 0.15 mg/kg/day, ig for 14 days starting from 12th day of immunization by RT-qPCR analysis relative to control. The data set is classed as functional. As to conditions: time 14 day.

In data set [19] the test system is Mus musculus. Kind of data set: Anti-inflammatory activity against MOG35-55-induced experimental autoimmune encephalomyelitis C57BL/6 mouse model assessed as fold change in BCL2 gene expression in brain at 0.3 mg/kg/day, ig for 14 days starting from 12th day of immunization by RT-qPCR analysis relative to control. The data set is classed as functional. The following applies: time 14 day.

The test system of data set [20] is Mus musculus. The data set can be described thus: Anti-inflammatory activity against MOG35-55-induced experimental autoimmune encephalomyelitis C57BL/6 mouse model assessed as fold change in MBP gene expression in brain at 0.15 mg/kg/day, ig for 14 days starting from 12th day of immunization by RT-qPCR analysis relative to control. The data set is classed as functional. As to conditions: time 14 day.

Data set [21] deals with Mus musculus. The data set can be described thus: Anti-inflammatory activity against MOG35-55-induced experimental autoimmune encephalomyelitis C57BL/6 mouse model assessed as fold change in APP gene expression in brain at 0.3 mg/kg/day, ig for 14 days starting from 12th day of immunization by RT-qPCR analysis relative to control. The following applies: time 14 day. The data set is classed as functional.

For data set [22], the system named is Mus musculus. Kind of data set: Anti-inflammatory activity against MOG35-55-induced experimental autoimmune encephalomyelitis C57BL/6 mouse model assessed as methylation of CpG sites of […] gene promoter in brain at […], ig for 14 days starting from 12th day of immunization by PCR analysis (reference value: 13.1 +/-8%). The following applies: time 14 day. The data set is classed as functional.

Data set [23] has as its system Mus musculus. Kind of data set: Anti-inflammatory activity against MOG35-55-induced experimental autoimmune encephalomyelitis C57BL/6 mouse model assessed as methylation of CpG sites of CXCL14 gene promoter in brain at […], ig for 14 days starting from 12th day of immunization by PCR analysis (reference value: 46.5 +/-6%). The following applies: time 14 day. The data set is classed as functional.

The record followed here is ChEMBL document CHEMBL5226375, “Synthesis and Comprehensive in Vivo Activity Profiling of Olean-12-en-28-ol, 3β-Pentacosanoate in Experimental Autoimmune Encephalomyelitis: A Natural Remyelinating and Anti-Inflammatory Agent” (J Nat Prod, 2023).

Each structure is given as a SMILES string.

With `CCCCCCCCCCCCCCCCCCCCCCCCC(=O)O[C@H]1CC[C@]2(C)[C@H]3CC=C4[C@@H]5CC(C)(C)CC[C@]5(CO)CC[C@@]4(C)[C@]3(C)CC[C@H]2C1(C)C`, the “fold change (FC)” value in the data set on Mus musculus [1] was 1.62; with Mus musculus [2] it was 1.54; in the data set with Mus musculus [3], -1.56; in the data set with Mus musculus [6] it was 2; in the data set on Mus musculus [8] it was 3.24; in the data set on Mus musculus [12] it was 2.69. The “fold change (FC)” value in the data set on Mus musculus [13] was -2.32; in the data set with Mus musculus [14], 2.55. Besides, the Stability result in [4] and in data set [9] was “Stable” in each case. Moreover, the Activity is given as 66.2% with Mus musculus [5], 15.2% in the data set on Mus musculus [7], 32% in the data set with Mus musculus [10] and 5.37 U/ml in data set [11].

Take `CCCCCCCCc1ccc(CCC(N)(CO)CO)cc1` [FINGOLIMOD]: the “fold change (FC)” value in the data set on Mus musculus [15] is 1.77; in the data set on Mus musculus [17], 1.98; in the data set on Mus musculus [18] it was 1.96; with Mus musculus [19], 2.12; with Mus musculus [20] it was -1.1; in the data set with Mus musculus [21] it was 1.72. In addition, the results for the Activity in the data set with Mus musculus [16], in the data set on Mus musculus [22] and in the data set on Mus musculus [23] were 8.8%, 19% and 73.6%, respectively.
